Measurements taken from US20030207830A1, “Mutant NDP kinases for antiviral nucleotide analog activation and therapeutic uses thereof” (priority 2002, published 2003).
Values belong to the molecule of their own block, whether it stands above or below them.

Legend:
[1] = system: E. coli BL21 (DE3) cells expressing L55H-N115S NDPK-A
Experimental: (§12) The cells were grown at 37° C. in exponential phase in minimum medium. They were then complemented with various concentrations of AZT, and turbidity at 600 nm was measured after 4H. Transformation with the vector without insertion served as a control.
(§13) Wild type and mutated NDP kinases were overexpressed in E. coli cells, and the sensitivity of exponentially growing cells to AZT was assayed after induction of NDP kinase expression by IPTG. The viability was estimated by plating and counting the cells.
(§14) The sensitivity to AZT of E. coli transformed with NDP kinase expression vectors was evaluated. Bacteriea BL21 (DE3) (Stratagene) were transformed by heat shock with pJC20 vectors (Schaertl, 1998) expressing either the wild type NDPK-A (pJC20-HA), the mutant enzyme N115S (pJC20-N115S), the double mutant enzyme L55H-N115S (pJC20-L55H-N115S), or without insertion (pJC20). Bacteria were grown at 37° C. in M9 liquid medium supplemented with casaminoacids (Dilco ref.) in exponential phase, then 10 μM IPTG was added. After 1 hour, cells were complemented with AZT from 10^−7 mg/mL to 10^−4 mg/mL for 4 hours. One mL of bacteria was plated onto LB agar, incubated overnight at 37° C., and counted.

[2] = system: E. coli BL21 (DE3) cells transformed with pJC20; test: AZT sensitivity of E. coli transformed with plasmid without insertion; type: cell-based; details: versus bacteria expressing NDPK-A, N115S-NDPK-A and L55H-N115S-NDPK-A, range tested
Experimental: as §12, §13, §14

[3] = molecular target: T1, human NDP kinase A (NDPK-A) variant L55H-N115S, SEQ ID NO: 3 (Homo sapiens, UniProt P15531, L55H/N115S); test: Pre-steady-state phosphotransfer, fluorescence stopped-flow; type: biochemical; details: substitution of Asn 115 for Ser and Leu 55 for His
T1 construct: made in house; host or cells: E. coli
T1 sequence (P15531 whole entry L55H/N115S): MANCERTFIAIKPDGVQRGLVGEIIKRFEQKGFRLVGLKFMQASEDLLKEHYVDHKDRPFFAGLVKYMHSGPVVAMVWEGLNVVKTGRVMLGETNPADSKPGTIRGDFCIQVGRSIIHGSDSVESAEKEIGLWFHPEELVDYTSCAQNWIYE
Experimental: (§1) FIG. 3 depicts the catalytic efficiency of NDPK-A and mutants for nucleoside analogs. The rates of phosphorylation of pure recombinant NDP kinases (1 μM) were measured at the pre-steady state in a fluorescence stopped-flow with d4T-TP (10 to 80 μM). The catalytic efficiency (expressed in M^−1s^−1) was determined from the variation of the rate as a function of analog as shown in FIG. 2 (▾, NDPK-A, ♦ L55H, ● N115S, ▪ L55H-N115S).
(§2) The activity assays were performed at the pre-steady state level.
(§3) R, the specificity change, is the ratio of the catalytic efficiencies (for analog versus natural nucleotide) of the mutant compared to the wild type enzyme.
(§4) Wild type human NDPK-A and the mutants were expressed and purified according to Schneider et al., 2000, Mol Pharm. Recombinant wild type and mutant Dd-NDPK were obtained as described (Schneid, 1998a), except for N119Y NDP kinase which was partially purified by Q sepharose FF chromatography. Each protein was characterized by […] electrophoresis. The concentration of 17 kDa subunits of the enzyme was either determined by Bradford assay ([…]) or using an absorbance coefficient of ΔA^280=1.249 for a 1 mg/mL solution of human wild type and N115S NDPK-A, and =0.55 for wild type and mutant N119S, N119T Dd-NDP kinases, respectively.
(§5) As the diphosphate form of analogs were not always available, the triphosphate analogs were used to study phosphate transfer in reaction as in Scheme I. Experiments were performed with an Hi-Tech DX2 microvolume stopped-flow reaction (Schneider, 1998) at Aexc=296 nm (for Ado derivatives) or […] (for other nucleotides), 2 mm excitation slit and a 320 nm cutoff filter at the emission. After mixing NDPK (1 μM) and NTP or an analogTP (10-500 μM), the intrinsic protein fluorescence was recorded for 10-200 sec. In each experiment, 400 pairs of data were recorded, and the data from 3-4 identical experiments were averaged and fitted to a number of non-linear analytical equations using the software provided by Hi-Tech.
(§6) The data were analyzed using the reaction scheme: [drawing 1]
(§7) In both the forward and the reverse reactions, the product concentration remains very low, thus the product binding can be neglected, and the observed single step could be attributed to the phosphotransfer (Schneider, 1998). The rate of this observed single step is: [formula]
and reaches a limiting value (k+2) at NTP saturation. […] Therefore, catalytic efficiencies of phosphorylation (CEphos=k+2/(k−1/k+1)=k+2/KS) were measured, which are equivalent to second order constants and allow a reliable comparison of a variety of NDP kinase substrates.

[4] = molecular target: T2, phosphorylated Dictyostelium N119S NDP kinase (Dictyostelium discoideum, UniProt P22887, N119S); test: Stopped-flow kinetics of phosphorylated enzyme with Acy-DP, N119S; type: biochemical
T2 construct: made in house
Experimental: (§8) (A) Kinetics of reaction of phosphorylated Dictyostelium wild type and N119S NDP kinases by 100 μM Acyclovir diphosphate (Acy-DP). The phosphorylated enzyme was prepared with a stoichiometry #1 as described (Deville-Bonne 1996). The kinases were preincubated with ATP in excess in buffer T (50 mM Tris-HCl, pH 7.5, 5 mM MgCl2 and 75 mM KCl). The increase in fluorescence upon mixing the phospho-enzyme (1 μM, final concentration) with Acy-DP in buffer T at 20° C. was monitored with a stopped-flow. The solid lines represent the best fit of each curve to a monoexponential.
(§9) (B) Concentration dependence of the rate constant on Acy-DP concentation. The pseudo-first order rate constant for the reaction (kobs) was plotted against Acy-DP.
Acyclovir is an acyclic nucleoside analog of Gua used against Herpes Simplex Virus.

[5] = molecular target: T3, phosphorylated Dictyostelium wild type NDP kinase (Dictyostelium discoideum, UniProt P22887); test: Stopped-flow kinetics of phosphorylated enzyme with Acy-DP, wild type; type: biochemical; details: phospho-enzyme 1 μM, buffer T, 20° C.
T3 construct: made in house
T3 sequence (P22887 1-155): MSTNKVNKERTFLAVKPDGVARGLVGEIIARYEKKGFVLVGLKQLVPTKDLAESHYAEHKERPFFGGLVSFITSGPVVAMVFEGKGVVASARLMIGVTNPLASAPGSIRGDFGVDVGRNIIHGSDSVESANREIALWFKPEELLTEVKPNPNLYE
Experimental: as §8, §9

[6] = molecular target: T4, Dictyostelium discoideum NDP kinase (Dd-NDPK) variant N119S, SEQ ID NO: 1 (Dictyostelium discoideum, UniProt P22887, N119S); test: Pre-steady-state phosphotransfer, fluorescence stopped-flow; type: biochemical
T4 construct: made in house
Experimental: as §8, §9
All numbers in italics have already been published (Schneider, 1998, 2000) The kinetic constants were measured at the pre-steady-state level using a fluorescence stopped-flow device. The binding constants were determined at equilibrium by recording the increase in fluorescence (Schneider, 2000). Values are the average of three independent determinations.
as §4
as §5, with “Hi-Tech. All curves fitted to single exponentials.” for “Hi-Tech.”
as §6, §7
and reaches a limiting value (k+2) at NTP saturation. Saturation could not be obtained with the concentrations of any NTP used here. Therefore, catalytic efficiencies of phosphorylation (CEphos=k+2/(k−1/k+1)=k+2/KS) were measured, which are equivalent to second order constants and allow a reliable comparison of a variety of NDP kinase substrates.

[7] = molecular target: T4, Dictyostelium discoideum NDP kinase (Dd-NDPK) variant N119S, SEQ ID NO: 1; test: Steady-state kinetics with ATP and dTDP, coupled enzymes; type: biochemical; details: dTDP
Experimental: (§10) First, by site-directed mutagenesis, a limited set of amino acid substitutions (Ser, Thr, or Tyr) at the position of Asn 119 were introduced into the active site of Dd-NDPK. The three mutant proteins were expressed and purified to homogeneity, except N119Y, which was found unstable and poorly active (0.05% of wild type activity).
(§11) The activity of NDP kinase was measured at 20° C. with ATP and dTDP as substrates using coupled enzymes (pyruvate kinase and lactate dehydrogenase) (Lascu 1993). One unit is the amount of enzyme that catalyzes the phosphotransfer of 1 μmol/min under standard conditions: [ATP]=1 mM, [dTDP]=0.2 mM. Rate constants (kcat) and Michaelis constants (Km) were determined from initial velocities for two different constant ratios of nucleotide [dTDP]/[ATP]=0.05 0.1 with [ATP] varying from 0.2 to 2 mM. kcat is expressed by enzyme subunit. The ratio of the ^apparentkcat/^apparentKM at a given concentration of the other substrate is equal to the true value of kcat/KM for a ping-pong enzyme.

[8] = molecular target: T5, Dictyostelium discoideum NDP kinase (Dd-NDPK) variant N119T (Dictyostelium discoideum, UniProt P22887, N119T); test: Steady-state kinetics with ATP and dTDP, coupled enzymes; reactivity for analogs; type: biochemical; details: dTDP
T5 construct: made in house
T5 sequence (P22887 whole entry N119T): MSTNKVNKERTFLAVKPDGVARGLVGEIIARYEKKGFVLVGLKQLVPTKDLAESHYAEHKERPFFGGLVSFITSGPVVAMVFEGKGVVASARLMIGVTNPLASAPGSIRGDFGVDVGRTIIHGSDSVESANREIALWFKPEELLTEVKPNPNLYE
Experimental: as §10, §11

[9] = Pre-steady-state phosphotransfer of human NDPK-A and mutants with d4T-TP; type: biochemical; details: ratio of catalytic efficiencies
Experimental: as §1
The intrinsic fluorescence properties of the three mutants were not affected by the mutations and were quenched upon phosphorylation of the catalytic His, as observed with wild type NDP kinase (Deville-Bonne, 1996). […]
as §5, with “Hi-Tech. […]” for “Hi-Tech.”

[10] = Steady-state NDP kinase activity, coupled enzymes (pyruvate kinase, lactate dehydrogenase); type: biochemical; details: for specific activity: standard conditions: [ATP]=1 mM, [dTDP]=0.2 mM, 20° C.
Experimental: as §11

[11] = Human NDPK-A mutants, summary over several nucleotide analogs compared to natural nucleotides; type: biochemical
Experimental: as §2, §3
The mutants described so far show altered specificity for antiviral drugs and natural nucleotides. Such a switch is usually defined as R, the specificity change, reflecting the ability of a mutant enzyme to prefer the analog rather than the natural nucleotide according to the expression: [formula]
where R is the ratio of the specificity factors of the mutant compared to the original enzyme, with the specificity factor of an enzyme being defined as the ratio of the catalytic efficiencies (CE=k2/KS) for a nucleotide analog and the natural nucleotide.

[12] = Reactivity of Dd-NDPK Asn 119 mutants for nucleotide analogs; type: biochemical; details: Dd-NDPK mutant versus wild type
Excerpt: as §10

[13] = identical concentrations of Acy-DP

Molecule: Cc1cn([C@H]2C[C@H](N=[N+]=[N-])[C@@H](CO)O2)c(=O)[nH]c1=O [AZT]
viable cells ([1]; AZT 5 and 10 ng/ml, double mutant versus wild type enzyme or N115S mutant): fewer viable cells
sensitization to AZT ([1]; E. coli transfected with the double mutant enzyme): increased sensitization to AZT
sensitivity to AZT [2]: less sensitive to AZT
enhancement of ability to phosphorylate [3]: 200-300 times

Molecule: Nc1nc2c(ncn2COCCOP(=O)(O)OP(=O)(O)O)c(=O)[nH]1 [Acy-DP, Acyclovir diphosphate]
times faster phosphorylation by N119S NDP kinase than wild type enzyme [4, 13]: seven
apparent second order constant, N119S mutant ([4]; phospho-enzyme 1 μM, buffer T, 20° C.): 4,500 M^−1s^−1
apparent second order constant, wild type NDP kinase [5]: 670 M⁻¹ s⁻¹
improvement of catalytic efficiency of phosphorylation by the mutation ([6]; from [Acy-DP] dependency of kobs): seven fold
phosphorylation rate relative to wild type enzyme [6, 13]: seven times faster

Molecule: Cc1cn([C@H]2C[C@H](O)[C@@H](COP(=O)(O)OP(=O)(O)O)O2)c(=O)[nH]c1=O [dTDP]
kcat, times lower than wild type enzyme [7]: ten times lower
effect on KM ([7]; versus wild type): little effect on KM
kcat, times lower than wild type enzyme [8]: three
effect on KM ([8]; versus wild type): little effect on KM

Molecule: L55H-N115S: double mutant human NDPK-A, Leu 55 to His and Asn 115 to Ser; SEQ ID NO: 3
times more slowly / fold less reaction with d4T-TP than with dTTP [9]: eight
specific activity [10]: 240 U/mg
increment in activity with analogs versus NDPK-A ([11]; catalytic efficiencies of Table II): 80-100 fold

steady-state activity relative to NDPK-A ([10]; ATP and dTDP): 1/10
Molecule: N115S: human NDPK-A with Asn 115 changed into Ser; SEQ ID NO: 2
specific activity [10]: 140 U/mg
specificity change (R), switch in specificity over analogs ([11]; analog versus natural nucleotide, mutant versus NDPK-A): around 100

enzyme reactivity for analogs [12]: improvement
B1: N119S: Dd NDP kinase mutated at position 119, asparagine to serine; SEQ ID NO: 1 (protein, UniProt P22887 1-155, looked up, variant N119S)
Nucleoside diphosphate …: MSTNKVNKERTFLAVKPDGVARGLVGEIIARYEKKGFVLVGLKQLVPTKDLAESHYAEHKERPFFGGLVSFITSGPVVAMVFEGKGVVASARLMIGVTNPLASAPGSIRGDFGVDVGRSIIHGSDSVESANREIALWFKPEELLTEVKPNPNLYE
catalytic constant kcat, times lower than the wild type enzyme ([10]; natural substrates such as dTDP, steady state, Dd-NDPK): ten
